How the values were obtained:
[1] = test system: β-catenin/TCF interaction; conditions: cited from earlier work
[2] = cited from earlier work
CRC and MM = conditions: cited from earlier work
GST-β-catenin = target: T1, GST-β-catenin (human, UniProt P35222 1-781); assay: pull-down
T1 sequence (looked up): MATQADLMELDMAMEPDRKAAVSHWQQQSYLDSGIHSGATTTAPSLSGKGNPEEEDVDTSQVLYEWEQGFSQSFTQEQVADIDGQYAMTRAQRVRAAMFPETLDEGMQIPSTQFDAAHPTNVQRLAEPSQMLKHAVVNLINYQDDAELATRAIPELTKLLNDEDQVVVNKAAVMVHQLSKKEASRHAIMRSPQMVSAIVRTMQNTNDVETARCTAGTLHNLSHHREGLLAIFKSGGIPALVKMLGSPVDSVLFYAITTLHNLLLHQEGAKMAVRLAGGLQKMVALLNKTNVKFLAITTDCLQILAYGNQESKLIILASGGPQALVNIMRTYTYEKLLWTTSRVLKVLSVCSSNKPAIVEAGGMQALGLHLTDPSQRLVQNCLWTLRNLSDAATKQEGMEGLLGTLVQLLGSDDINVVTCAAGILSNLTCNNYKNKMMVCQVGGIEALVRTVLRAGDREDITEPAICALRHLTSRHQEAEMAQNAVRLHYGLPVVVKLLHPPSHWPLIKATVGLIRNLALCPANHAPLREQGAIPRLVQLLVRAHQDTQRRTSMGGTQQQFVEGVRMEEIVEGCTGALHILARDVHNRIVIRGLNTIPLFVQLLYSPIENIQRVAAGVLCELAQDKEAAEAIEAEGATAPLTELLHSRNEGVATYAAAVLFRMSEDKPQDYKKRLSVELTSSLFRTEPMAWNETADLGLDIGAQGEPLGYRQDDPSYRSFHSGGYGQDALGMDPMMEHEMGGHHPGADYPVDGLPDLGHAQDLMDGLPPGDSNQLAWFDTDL

binding result (GST-β-catenin) | Molecule | Wnt-specific transcriptional activity [1] | toxicity in treated mice [2] | growth of CRC and MM (CRC and MM)
 | PKF115-584 | blocked Wnt-specific transcriptional activity | induced severe bone marrow hypoplasia, anemia, and generalized wasting | reduced the growth
binds | His-BCL9 (residues 243–469) (domain or fragment, human, UniProt O00512 243-469, looked up) NQDQNSSQNTRLQPTPPIPAPAPKPAAPPRPLDRESPGVENKLIPSVGSPASSTPLPPDGTGPNSTPNNRAVTPVSQGSNSSSADPKAPPPPPVSSGEPPTLGENPDGLSQEQLEHRERSLQTLRDIQRMLFPDEKEFTGAQSGGPQQNPGVLDGPQKKPEGPIQAMMAQSQSLGKGPGPRTDVGAPFGPQGHRDVPFSPDEMVPPSMNSQSGTIGPDHLDHMTPEQ |  |  | 

— article PMC3631420 (Science translational medicine, 2012)
